Measured values as given in paper PMC3504108 (PLoS ONE, 2012).

How the values were obtained:
[1] = molecular target: T1, Sirt3 (Homo sapiens, UniProt Q9NTG7); assay: ELISA-based deacetylation assay (Figure S3B); assay type: biochemical
T1 sequence (Q9NTG7 102-399): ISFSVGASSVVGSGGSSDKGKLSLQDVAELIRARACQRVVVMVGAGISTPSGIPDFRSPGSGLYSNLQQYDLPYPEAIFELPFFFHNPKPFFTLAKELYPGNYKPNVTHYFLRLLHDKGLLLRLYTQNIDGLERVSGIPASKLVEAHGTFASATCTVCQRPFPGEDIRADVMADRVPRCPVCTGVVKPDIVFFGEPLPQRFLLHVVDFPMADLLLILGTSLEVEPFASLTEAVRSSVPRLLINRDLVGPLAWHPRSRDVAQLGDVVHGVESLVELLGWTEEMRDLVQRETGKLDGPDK

[2] = molecular target: T2, Sirt5 (Homo sapiens, UniProt Q9NXA8); assay: ELISA-based deacetylation assay (weak inhibition, Figure S3B); assay type: biochemical
T2 construct: catalytic core, residues 34–302
T2 sequence (Q9NXA8 34-302): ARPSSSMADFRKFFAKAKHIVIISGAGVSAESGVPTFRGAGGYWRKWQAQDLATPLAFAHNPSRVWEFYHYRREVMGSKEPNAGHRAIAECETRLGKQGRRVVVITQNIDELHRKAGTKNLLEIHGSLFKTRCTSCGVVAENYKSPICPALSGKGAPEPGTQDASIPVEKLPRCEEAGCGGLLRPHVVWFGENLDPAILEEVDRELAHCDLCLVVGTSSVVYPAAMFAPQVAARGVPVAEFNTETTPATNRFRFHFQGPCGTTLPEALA

[3] = molecular target: T2, Sirt5; assay: FdL1 fluorogenic deacetylation assay (activation dose-response); assay type: biochemical
[4] = molecular target: T3, Sirt3 (Homo sapiens, UniProt Q9NTG7); assay: X-ray crystal structure ([…] Å, ternary with FdL1 peptide), plus FdL2 deacetylation inhibition; assay type: binding
T3 construct: catalytic core, residues 118–399
T3 sequence (Q9NTG7 118-399): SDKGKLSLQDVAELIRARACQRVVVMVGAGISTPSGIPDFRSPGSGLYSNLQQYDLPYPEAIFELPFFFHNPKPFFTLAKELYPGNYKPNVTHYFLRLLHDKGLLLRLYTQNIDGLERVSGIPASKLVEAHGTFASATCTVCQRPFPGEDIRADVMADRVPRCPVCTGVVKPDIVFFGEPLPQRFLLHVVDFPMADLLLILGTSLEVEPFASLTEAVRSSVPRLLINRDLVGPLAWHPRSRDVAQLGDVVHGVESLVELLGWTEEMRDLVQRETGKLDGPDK

[5] = molecular target: T2, Sirt5; assay: X-ray crystal structure ([…] Å, ternary with FdL1 peptide; ligand occupancy […]), plus deacetylase activation assays; assay type: binding
[6] = molecular target: T2, Sirt5; assay: Cytochrome c deacetylation ELISA (activation, Figure S3A); assay type: biochemical

## O=c1c(O)c(-c2ccc(O)c(O)c2)oc2cc(O)ccc12 [fisetin]
[1]
  ELISA-based deacetylation assay (Figure S3B): only fisetin shows a weak inhibitory effect on Sirt5 and significant inhibition of Sirt3 in an ELISA-based deacetylation assay
[2]
  ELISA-based deacetylation assay (weak inhibition, Figure S3B): only fisetin shows a weak inhibitory effect on Sirt5

## Oc1cc(O)cc(/C=C/c2ccc(O)c(O)c2)c1 [piceatannol]
[3]
  EC50: 70 ± 20 µM
[4]
  X-ray crystal structure (2.3 Å, ternary with FdL1 peptide), plus FdL2 deacetylat: we also solved the crystal structure of Sirt3 in complex with FdL1-peptide and piceatannol

## Oc1ccc(/C=C/c2cc(O)cc(O)c2)cc1 [resveratrol]
[5]
  X-ray crystal structure (2.6 Å, ternary with FdL1 peptide); ligand occupancy ~50%: Co-ordinates and structure factors of Sirt5 in complex with FdL1-peptide and resveratrol

## OCCc1ccc(O)cc1 [tyrosol, 4-(2-hydroxyethyl)phenol]
[6]
  Cytochrome c deacetylation ELISA (activation, Figure S3A): activates Sirt5 in a Cytochrome c deacetylation assay (see below, Figure S3A)
